Test results as given in US20250032527A1, “MEDICAL USE OF N4-HYDROXY CITICOLINE COMPOUNDS” (IMMUNIC AG, priority 2021, published 2025).
In brackets after ≈: the same amount, converted by molar mass. Where a name gives a salt, the structure may show the parent alone. Read-outs that look alike come from different tables or passages of the source.

Experiments:
SARS-COV-2 = experiment: microbe, parasite or virus in culture; type: cell-based; details: for SI: SARS-COV-2, CC50/EC50; for EC50: Severe acute respiratory syndrome coronavirus 2
in vitro = details: human
[1] = cited from earlier work
[2] = pH 7.4
[3] = Mouse pharmacokinetics, blood levels after single oral dose; type: in vivo, female C57BL/6 mice
Procedure: The present study aimed at the determination of pharmacokinetic parameters of Example 2 and it's metabolites (NHC, NHC-MP, NHC-DP and NHC-TP) in blood after single dose oral administration of 96.5 μmol/kg to female C57BL/6 mice (body weight 20 to 21 g). Blood samples were obtained from the retrobulbar venous plexus into Li-Heparin tubes (Minivette POCT, […]). The vehicle for preparation of the dose formulations was PBS. The samples were analysed by high resolution LC-MS at Pharmacelsus GmbH, Germany.

Microsomal stability = type: in vitro ADME; details: compared to non-deuterated matched pair C26
RSV A2 = experiment: RSV virus titers by endpoint titration (CCID50), mono and combination; type: cell-based; details: MA-104 cells, virus control 4.0
HRV-14 = HRV-14 virus titers by endpoint titration (CCID50), mono and combination; type: cell-based; details: Hela cells, virus control 6.7
[4] = molecular target: N-terminally truncated recombinant hDHODH enzyme (Homo sapiens, UniProt Q02127); experiment: Human DHODH inhibition assay; type: biochemical; details: pH 8.0, 30° C.
Chain of N-terminally truncated recombinant hDHODH enzyme (Q02127 whole entry, looked up, the tested form may be a part): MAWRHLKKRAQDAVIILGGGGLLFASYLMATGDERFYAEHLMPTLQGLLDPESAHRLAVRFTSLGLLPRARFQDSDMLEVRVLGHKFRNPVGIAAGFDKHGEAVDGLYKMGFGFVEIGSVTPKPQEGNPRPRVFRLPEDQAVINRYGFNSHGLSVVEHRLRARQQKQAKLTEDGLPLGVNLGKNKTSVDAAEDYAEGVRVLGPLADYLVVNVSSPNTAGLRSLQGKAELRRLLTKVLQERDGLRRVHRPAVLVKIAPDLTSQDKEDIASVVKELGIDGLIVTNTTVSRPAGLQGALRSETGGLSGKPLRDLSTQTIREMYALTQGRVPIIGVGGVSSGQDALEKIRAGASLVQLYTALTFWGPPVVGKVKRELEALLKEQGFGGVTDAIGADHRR
Procedure: Briefly, the hDHODH concentration was adjusted in a way that an average slope of approximately 0.2 AU/min served as the positive control (e.g. without inhibitor). […] The reaction was started by adding dihydroorotate and measuring the absorption at 600 nm for 2 min. For the determination of the IC50 values, each data point was recorded in triplicate. For the determination of the inhibitory constant Ki, the KM values for DHO and decylubichinon were determined. Afterwards, the compounds were diluted in a dilution series depending on their IC50 values in DMSO. The dilution was: 0 ×IC50 , 1/4×IC50 , 1/2×IC50 , 1×IC50 , 2×IC50 , 4×IC50 . […] Each data point was recorded in duplicate.

[5] = pH 7.4; remark: listed apart in the source
physchem [6] = details: pH 7.4, aqueous buffer, kinetic from dmso stock
physchem [7] = details: fassgf or other biorelevant, kinetic from dmso stock
physchem [8] = details: simulated gastric fluid
physchem [9] = details: pH 7.4
[10] = A-B permeability (Caco-2, pH 6.5/7.4); details: human, A-B, Caco-2, pH 6.5/7.4, test conc. 1.0E−05M
[11] = B-A permeability (Caco-2, pH 6.5/7.4); details: human, test conc. 1.0E−05M
[12] = SARS-COV-2 viral replication (YFP), read-out: EC50
[13] = metabolite in blood of mice after single oral 96.5 μmol/kg Example 2
[14] = Caco-2, pH 6.5, Percent Recovery 1st
[15] = Caco-2, pH 6.5, Percent Recovery 2nd
[16] = Caco-2, pH 6.5, Percent Recovery Mean
[17] = Caco-2, pH 6.5, Permeability 1st
[18] = Caco-2, pH 6.5, Permeability 2nd
[19] = Caco-2, pH 6.5, Permeability Mean

[2H]C([2H])([2H])Oc1cccc(-c2cc(F)c(NC(=O)C3=C(C(=O)O)CCC3)c(F)c2)c1 [Example 51, 2-((3,5-Difluoro-3′-(methoxy-d3)-[1,1′-biphenyl]-4-yl)carbamoyl) cyclopent-1-ene-1-carboxylic acid]
SI (SARS-COV-2): >5 | EC50 (SARS-COV-2; [12]): < 20 µM | CC50 (in vitro): > 100 µM

C[N+](C)(C)CCOP(=O)(O)OP(=O)([O-])OC[C@H]1O[C@@H](n2ccc(N)nc2=O)[C@H](O)[C@@H]1O [Citicoline, cytidine 5′-diphosphocholine]
oral bioavailability [1]: more than 90%

O=c1nc(NO)ccn1[C@@H]1O[C@H](COP(=O)(O)OP(=O)(O)O)[C@@H](O)[C@H]1O [NHC-DP, β-D-N^4-hydroxycytidine 5′-diphosphate]
logD [2]: 0.12

C[N+](C)(C)CCOP(=O)(O)OP(=O)([O-])OC[C@H]1O[C@@H](n2ccc(NO)nc2=O)[C@H](O)[C@@H]1O [Example 2, 2-(((((((2R,3S,4R,5R)-3,4-Dihydroxy-5-(4-(hydroxyamino)-2-oxopyrimidin-1 (2H)-yl)tetrahydrofuran-2-yl)methoxy) (hydroxy)phosphoryl)oxy)oxidophosphoryl)oxy)-N,N,N-trimethylethan-1-aminium triethylammonium salt]
blood concentration of test item (lower limit of quantification) ([3]; mice, single oral 96.5 μmol/kg Example 2, not found in all blood samples): < 14.4 nM

[2H]C([2H])([2H])Oc1cccc(-c2ccc(NC(=O)C3=C(C(=O)O)CCC3)c(F)c2)c1 [Example 50, 2-((3-Fluoro-3′-(methoxy-d3)-[1,1′-biphenyl]-4-yl)carbamoyl) cyclopent-1-ene-1-carboxylic acid]
microsomal stability (Microsomal stability): improved | EC50 (SARS-COV-2): < 10 µM | RSV Virus Titers (RSV A2; Conc. 0.0079 μM): 3.7 CCID50/mL (Log10) | RSV Virus Titers (RSV A2; Conc. 0.025 μM): 3.7 CCID50/mL (Log10) | RSV Virus Titers (RSV A2; Conc. 0.079 μM): 3.5 CCID50/mL (Log10) | RSV Virus Titers (RSV A2; Conc. 0.25 μM): 3.5 CCID50/mL (Log10) | RSV Virus Titers (RSV A2; Conc. 0.79 μM): 3.5 CCID50/mL (Log10) | RSV Virus Titers (RSV A2; Conc. 2.5 μM): 2.0 CCID50/mL (Log10) | RSV Virus Titers (RSV A2; Conc. 7.9 μM): 2.0 CCID50/mL (Log10) | RSV Virus Titers (RSV A2; Conc. 25 μM): <0.7 CCID50/mL (Log10) | HRV-14 Virus Titers (HRV-14; Conc. 0.0079 μM): 6.7 CCID50/mL (Log10) | HRV-14 Virus Titers (HRV-14; Conc. 0.025 μM): 6.7 CCID50/mL (Log10) | HRV-14 Virus Titers (HRV-14; Conc. 0.079 μM): 7.0 CCID50/mL (Log10) | HRV-14 Virus Titers (HRV-14; Conc. 0.25 μM): 6.7 CCID50/mL (Log10) | HRV-14 Virus Titers (HRV-14; Conc. 0.79 μM): 6.7 CCID50/mL (Log10) | HRV-14 Virus Titers (HRV-14; Conc. 2.5 μM): 7.0 CCID50/mL (Log10) | HRV-14 Virus Titers (HRV-14; Conc. 7.9 μM): 4.0 CCID50/mL (Log10) | HRV-14 Virus Titers (HRV-14; Conc. 25 μM): 3.5 CCID50/mL (Log10) | CC50 (in vitro): > 100 µM

O=c1nc(NO)ccn1[C@@H]1O[C@H](COP(=O)(O)OP(=O)(O)OP(=O)(O)O)[C@@H](O)[C@H]1O [NHC-TP, β-D-N^4-hydroxycytidine 5′-triphosphate, reference compound]
maximal blood concentration [3, 13]: 611+100 nM | time of maximal blood concentration post dose [3, 13]: 4 h

COc1cccc(C2=CCC=C(NC(=O)C3=C(C(=O)O)CCC3)C(F)=C2)c1 [Example C26]
Ki ([4]; substrate DHO varied, read-out: Ki (DHO)): 0.592 µM | Ki ([4]; substrate decylubichinon varied, read-out: Ki (decylubichinon)): 0.245 µM

C[N+](C)(C)CCOP(=O)([O-])OP(=O)([O-])OC[C@H]1O[C@@H](n2ccc(N)nc2=O)[C@H](O)[C@@H]1O.[Na+] [Example C1, Citicoline sodium, reference compound]
SI (SARS-COV-2): inactive | EC50 (SARS-COV-2; [12]): > 50 µM | CC50 (in vitro): > 100 µM

O=c1nc(NO)ccn1[C@@H]1O[C@H](CO)[C@@H](O)[C@H]1O [NHC, β-D-N^4-hydroxycytidine]
Solubility 1st [5]: 349.99 µM (≈ 90.7 µg/mL) | Solubility 2nd [5]: 362.05 µM (≈ 93.8 µg/mL) | Solubility Mean [5]: > 200 µM | logD [2]: 1.12

CC(C)C(=O)OC[C@H]1O[C@@H](n2ccc(NO)nc2=O)[C@H](O)[C@@H]1O [molnupiravir, reference compound]
solubility (physchem [6]; Solubility 1st): 247 µM (≈ 81.3 µg/mL) | solubility (physchem [6]; Solubility 2nd): 291 µM (≈ 95.7 µg/mL) | solubility (physchem [6]; Solubility Mean): > 200 µM | solubility (physchem [7]; Solubility 1st): 302 µM (≈ 99.3 µg/mL) | solubility (physchem [7]; Solubility 2nd): 329 µM (≈ 108 µg/mL) | solubility (physchem [7]; Solubility Mean): > 200 µM | solubility (physchem [8]; Solubility 1st): 258 µM (≈ 84.9 µg/mL) | solubility (physchem [8]; Solubility 2nd): 293 µM (≈ 96.4 µg/mL) | solubility (physchem [8]; Solubility Mean): > 200 µM | logD (physchem [9]): 0.39 | recovery at 10 µM [10, 14]: 70% | recovery at 10 µM [10, 15]: 71% | recovery at 10 µM [10, 16]: 71% | Papp at 10 µM [10, 17]: 0.19 ×10⁻⁶ cm/s | Papp at 10 µM [10, 18]: 0.13 ×10⁻⁶ cm/s | Papp at 10 µM [10, 19]: 0.2 ×10⁻⁶ cm/s | recovery at 10 µM [11, 14]: 90% | recovery at 10 µM [11, 15]: 89% | recovery at 10 µM [11, 16]: 89% | Papp at 10 µM [11, 17]: 0.26 ×10⁻⁶ cm/s | Papp at 10 µM [11, 18]: 0.27 ×10⁻⁶ cm/s | Papp at 10 µM [11, 19]: 0.3 ×10⁻⁶ cm/s

O=c1nc(NO)ccn1[C@@H]1O[C@H](COP(=O)(O)O)[C@@H](O)[C@H]1O [NHC-MP]
AUC (0-inf) [3, 13]: 1.624 µM·h | elimination half-life [3, 13]: 7.3 h | maximal blood concentration [3, 13]: 274+41.4 nM | time of maximal blood concentration post dose [3, 13]: 0.5 h
